Experiments:
[1] = test system: barnyardgrass; experiment: Test A pre-/postemergence herbicide test; type: in vivo, Echinochloa crus-galli
Description: (§1) Seeds of plant species selected from barnyardgrass (Echinochloa crus-galli (L.) Beauv.), downy bromegrass (Bromus tectorum L.), large crabgrass (Digitaria sanguinalis (L.) Scop.), giant foxtail (Setaria faberi Herrm.), morningglory (Ipomoea spp.), redroot pigweed (Amaranthus retroflexus L.) and velvetleaf (Abutilon theophrasti Medik.) were planted into a sandy loam soil and treated preemergence with a directed soil spray using test chemicals formulated in a non-phytotoxic solvent mixture which included a surfactant. At the same time plants selected from these species were also treated postemergence by spraying to runoff with test chemicals formulated.
(§2) Plants ranged in height from 2 to 10 cm and were in the one- to two-leaf stage for the postemergence treatment. Treated plants and untreated controls were maintained in a greenhouse for approximately ten days, after which time all treated plants were compared to untreated controls and visually evaluated for injury. Plant response ratings, summarized in Table A, are based on a 0 to 100 scale where 0 is no effect and 100 is complete control. A dash (-) response means no test results.

[2] = test system: velvetleaf; experiment: Test A pre-/postemergence herbicide test; type: in vivo, Abutilon theophrasti
Description: as §1, §2

[3] = test system: redroot pigweed; experiment: Test A pre-/postemergence herbicide test; type: in vivo, Amaranthus retroflexus
Description: as §1, §2

[4] = test system: morningglory; experiment: Test A pre-/postemergence herbicide test; type: in vivo, Ipomoea spp.
Description: as §1, §2

[5] = test system: giant foxtail; experiment: Test A pre-/postemergence herbicide test; type: in vivo, Setaria faberi
Description: as §1, §2

[6] = test system: large crabgrass; experiment: Test A pre-/postemergence herbicide test; type: in vivo, Digitaria sanguinalis
Description: as §1, §2

[7] = test system: cocklebur; experiment: Test B pre-/postemergence herbicide test; type: in vivo, Xanthium strumarium
Description: (§3) Seeds selected from barnyardgrass (Echinochloa crus-galli (L.) Beauv.), Surinam grass (Urochloa decumbens (Staph) R. D. Webster, previously named Brachiaria decumbens Stapf), cocklebur (Xanthium strumarium L.), corn (Zea mays L.), large crabgrass (Digitaria sanguinalis (L.) Scop.), giant foxtail (Setaria faberi Herim.), lambsquarters (Chenopodium album L.), morningglory (Ipomoea coccinea L.), pigweed (Amaranthus retroflexus L.), rice (Oryza sativa L.) and velvetleaf (Abutilon theophrasti Medik.) were planted and treated preemergence with test chemicals formulated in a non-phytotoxic solvent mixture which included a surfactant.
(§4) At the same time, plants selected from these crop and weed species and also blackgrass (Alopecurus myosuroides Huds.), wheat (Triticum aestivum L.) and wild oat (Avena fatua L.) were treated with postemergence applications of test chemicals formulated in the same manner. Plants ranged in height from 2 to 18 cm (1- to 4-leaf stage) for postemergence treatments. Plant species in the flooded paddy test consisted of rice (Oryza sativa L.), small flower umbrella sedge (Cyperus difformis L.), ducksalad (Heteranthera limosa (Sw.) Willd.) and barnyardgrass (Echinochloa crus-galli (L.) Beauv.) grown to the 2-leaf stage for testing. Treated plants and controls were maintained in a greenhouse for 13 to 15 days, after which time all species were compared to controls and visually evaluated. Plant response ratings, summarized in Table B, are based on a scale of 0 to 100 where 0 is no effect and 100 is complete control. A dash (-) response means no test result.

[8] = test system: wild oat; experiment: Test B postemergence herbicide test; type: in vivo, Avena fatua; settings: scale 0 (no effect) to 100 (complete control)
Description: as §4

[9] = test system: lambsquarters; experiment: Test B pre-/postemergence herbicide test; type: in vivo, Chenopodium album
Description: as §3, §4

[10] = test system: morningglory; experiment: Test B pre-/postemergence herbicide test; type: in vivo, Ipomoea coccinea
Description: as §3, §4

[11] = test system: large crabgrass; experiment: Test B pre-/postemergence herbicide test; type: in vivo, Digitaria sanguinalis
Description: as §3, §4

[12] = test system: pigweed; experiment: Test B pre-/postemergence herbicide test; type: in vivo, Amaranthus retroflexus
Description: as §3, §4

[13] = test system: rice; experiment: Test B flooded paddy test; type: in vivo, Oryza sativa; settings: 1000 g ai/ha, visual rating, scale 0 to 100 (0 no effect, 100 complete control), 13 to 15 days
Description: as §4

[14] = test system: small flower umbrella sedge; experiment: Test B flooded paddy test; type: in vivo, Cyperus difformis; settings: 1000 g ai/ha, visual rating, scale 0 to 100 (0 no effect, 100 complete control), 13 to 15 days
Description: as §4

[15] = test system: corn; experiment: Test B pre-/postemergence herbicide test; type: in vivo, Zea mays
Description: as §3, §4

[16] = test system: Surinam grass; experiment: Test B pre-/postemergence herbicide test; type: in vivo, Urochloa decumbens
Description: as §3, §4

[17] = test system: barnyardgrass; experiment: Test B flooded paddy test; type: in vivo, Echinochloa crus-galli; settings: 1000 g ai/ha, visual rating, scale 0 to 100 (0 no effect, 100 complete control), 13 to 15 days
Description: as §4

[18] = test system: wheat; experiment: Test B postemergence herbicide test; type: in vivo, Triticum aestivum; parameters: key to Wheat plant response rating: 0 = no effect, 100 = complete control; settings: scale 0 (no effect) to 100 (complete control)
Description: as §4

[19] = test system: barnyardgrass; experiment: Test B pre-/postemergence herbicide test; type: in vivo, Echinochloa crus-galli
Description: as §3, §4

[20] = test system: ducksalad; experiment: Test B flooded paddy test; type: in vivo, Heteranthera limosa; settings: 1000 g ai/ha, visual rating, scale 0 to 100 (0 no effect, 100 complete control), 13 to 15 days
Description: as §4

[21] = test system: giant foxtail; experiment: Test B pre-/postemergence herbicide test; type: in vivo, Setaria faberi
Description: as §3, §4

[22] = test system: blackgrass; experiment: Test B postemergence herbicide test; type: in vivo, Alopecurus myosuroides; settings: scale 0 (no effect) to 100 (complete control)
Description: as §4

[23] = test system: velvetleaf; experiment: Test B pre-/postemergence herbicide test; type: in vivo, Abutilon theophrasti
Description: as §3, §4

[24] = Postemergence, 500 g ai/ha, 0 to 100 scale, 0 no effect, 100 complete control
[25] = Postemergence, 2000 g ai/ha, 0 to 100 scale, 0 no effect, 100 complete control
[26] = Preemergence, 500 g ai/ha, visual rating, 0 to 100 scale (0 no effect, 100 complete control)
[27] = Preemergence, 2000 g ai/ha, 0 to 100 scale, 0 no effect, 100 complete control
[28] = Preemergence, 2000 g ai/ha, visual rating, 0 to 100 scale (0 no effect, 100 complete control)
[29] = 500 g ai/ha, visual rating 0-100, 0 no effect, 100 complete control, preemergence
[30] = Postemergence, 500 g ai/ha, visual rating after 13 to 15 days, scale 0 (no effect) to 100 (complete control)
[31] = postemergence, 125 g ai/ha, visual rating, scale 0 (no effect) to 100 (complete control)
[32] = preemergence, 125 g ai/ha, 0 to 100 scale, 0 is no effect, 100 is complete control
[33] = Postemergence, 500 g ai/ha, visual rating after 13 to 15 days
[34] = postemergence, 125 g ai/ha, visual rating
[35] = Postemergence, 125 g ai/ha, 0 to 100 scale, 0 no effect, 100 complete control
[36] = preemergence, 125 g ai/ha, visual injury, 0 to 100 scale (0 no effect, 100 complete control)
[37] = preemergence, 500 g ai/ha, visual injury, 0 to 100 scale (0 no effect, 100 complete control)

Cn1nc(C(C)(C)C)cc1C(=O)Nc1cccc2c1CNC2=O [Compound 53]
Plant response rating, Barnyardgrass [1, 24]: 0
Plant response rating, Barnyardgrass [1, 25]: 0
Barnyardgrass plant response rating [1, 26]: 0
Barnyardgrass plant response rating [1, 27]: 10
Plant response rating, Velvetleaf [2, 25]: 0
Velvetleaf plant response rating [2, 26]: 0
Velvetleaf plant response rating [2, 27]: 0
Plant response rating, Pigweed [3, 24]: 0
Plant response rating, Pigweed [3, 25]: 0
Pigweed plant response rating [3, 26]: 30
Pigweed plant response rating [3, 27]: 40
Plant response rating, Morningglory [4, 24]: 0
Plant response rating, Morningglory [4, 25]: 0
Morningglory plant response rating [4, 26]: 0
Morningglory plant response rating [4, 27]: 0
Plant response rating, Foxtail, Giant [5, 24]: 0
Plant response rating, Foxtail, Giant [5, 25]: 0
Foxtail, Giant plant response rating [5, 26]: 0
Foxtail, Giant plant response rating [5, 27]: 0
Plant response rating, Crabgrass, Large [6, 24]: 5
Plant response rating, Crabgrass, Large [6, 25]: 0
Crabgrass, Large plant response rating [6, 26]: 0
Crabgrass, Large plant response rating [6, 27]: 40

CC(=NO)c1cccc(NC(=O)c2cc(C(F)(F)F)nn2C)c1 [Compound 103]
Barnyardgrass plant response rating [1, 24]: 45
Plant response rating, Barnyardgrass [1, 25]: 75
Barnyardgrass plant response rating [1, 26]: 55
Barnyardgrass plant response rating [1, 28]: 85
Velvetleaf plant response rating [2, 24]: 10
Plant response rating, Velvetleaf [2, 25]: 45
Velvetleaf plant response rating [2, 26]: 20
Velvetleaf plant response rating [2, 28]: 20
Pigweed plant response rating [3, 24]: 85
Plant response rating, Pigweed [3, 25]: 100
Pigweed plant response rating [3, 26]: 80
Pigweed plant response rating [3, 28]: 95
Morningglory plant response rating [4, 24]: 25
Plant response rating, Morningglory [4, 25]: 35
Morningglory plant response rating [4, 26]: 0
Morningglory plant response rating [4, 28]: 10
Foxtail, Giant plant response rating [5, 24]: 10
Plant response rating, Foxtail, Giant [5, 25]: 30
Foxtail, Giant plant response rating [5, 26]: 0
Foxtail, Giant plant response rating [5, 28]: 15
Crabgrass, Large plant response rating [6, 24]: 15
Plant response rating, Crabgrass, Large [6, 25]: 30
Crabgrass, Large plant response rating [6, 26]: 35
Crabgrass, Large plant response rating [6, 28]: 55

CCCn1nc(C(C)(C)C)cc1C(=O)Nc1cccc(C(C)=NO)c1 [Compound 113]
Plant response rating, Cocklebur [7, 29]: 20
Plant response rating, Cocklebur [7, 30]: 100
Cocklebur plant response rating [7, 31]: 100
Plant response rating, Cocklebur [7, 32]: 0
Plant response rating, Oat, Wild [8, 33]: 60
Oat, Wild plant response rating [8, 34]: 40
Plant response rating, Lambsquarters [9, 29]: 100
Plant response rating, Lambsquarters [9, 30]: 100
Lambsquarters plant response rating [9, 31]: 90
Plant response rating, Lambsquarters [9, 32]: 80
Plant response rating, Morningglory [10, 29]: 50
Plant response rating, Morningglory [10, 30]: 100
Morningglory plant response rating [10, 31]: 20
Plant response rating, Morningglory [10, 32]: 0
Plant response rating, Crabgrass, Large [11, 29]: 100
Plant response rating, Crabgrass, Large [11, 30]: 80
Crabgrass, Large plant response rating [11, 31]: 30
Plant response rating, Crabgrass, Large [11, 32]: 100
Plant response rating, Pigweed [12, 29]: 100
Plant response rating, Pigweed [12, 30]: 100
Pigweed plant response rating [12, 31]: 90
Plant response rating, Pigweed [12, 32]: 0
Rice plant response rating [13]: 60
Sedge, Umbrella plant response rating [14]: 90
Plant response rating, Corn [15, 29]: 0
Plant response rating, Corn [15, 30]: 30
Corn plant response rating [15, 31]: 30
Plant response rating, Corn [15, 32]: 0
Plant response rating, Surinam Grass [16, 29]: 10
Plant response rating, Surinam Grass [16, 30]: 60
Surinam Grass plant response rating [16, 31]: 40
Plant response rating, Surinam Grass [16, 32]: 10
Barnyardgrass plant response rating [17]: 70
Plant response rating, Wheat [18, 33]: 30
Wheat plant response rating [18, 34]: 10
Plant response rating, Barnyardgrass [19, 29]: 90
Plant response rating, Barnyardgrass [19, 30]: 80
Barnyardgrass plant response rating [19, 31]: 30
Plant response rating, Barnyardgrass [19, 32]: 60
Ducksalad plant response rating [20]: 90
Plant response rating, Foxtail, Giant [21, 29]: 30
Plant response rating, Foxtail, Giant [21, 30]: 40
Foxtail, Giant plant response rating [21, 31]: 30
Plant response rating, Foxtail, Giant [21, 32]: 10
Plant response rating, Blackgrass [22, 33]: 20
Blackgrass plant response rating [22, 34]: 10
Plant response rating, Velvetleaf [23, 29]: 20
Plant response rating, Velvetleaf [23, 30]: 60
Velvetleaf plant response rating [23, 31]: 20
Plant response rating, Velvetleaf [23, 32]: 20

CCNC(=O)c1ccc(F)c(NC(=O)c2nc(C(C)(C)C)nn2CC)c1 [Compound 447]
Barnyardgrass plant response rating [1, 35]: 25
Barnyardgrass plant response rating [1, 24]: 70
Barnyardgrass plant response rating [1, 36]: 20
Barnyardgrass plant response rating [1, 37]: 60
Velvetleaf plant response rating [2, 35]: 10
Velvetleaf plant response rating [2, 24]: 30
Velvetleaf plant response rating [2, 36]: 0
Velvetleaf plant response rating [2, 37]: 0
Pigweed plant response rating [3, 35]: 40
Pigweed plant response rating [3, 24]: 50
Pigweed plant response rating [3, 36]: 10
Pigweed plant response rating [3, 37]: 50
Morningglory plant response rating [4, 35]: 5
Morningglory plant response rating [4, 24]: 10
Morningglory plant response rating [4, 36]: 0
Morningglory plant response rating [4, 37]: 0
Foxtail, Giant plant response rating [5, 35]: 10
Foxtail, Giant plant response rating [5, 24]: 40
Foxtail, Giant plant response rating [5, 36]: 10
Foxtail, Giant plant response rating [5, 37]: 45
Crabgrass, Large plant response rating [6, 35]: 10
Crabgrass, Large plant response rating [6, 24]: 25
Crabgrass, Large plant response rating [6, 36]: 0
Crabgrass, Large plant response rating [6, 37]: 35

From US20060069132A1, “Azolecarboxamide herbicides” (priority 2004, published 2006)
